In patent publication US11560385B2, “Proteasome activity enhancing compounds” (Proteostasis Therapeutics, Inc., priority 2018, dated 2023) one finds IC50 data, which are given here for eleven compounds.

The structures appear in SMILES notation.

This assay deals with USP14 (Homo sapiens (Human), UniProt P54578). The assay is described as follows: Usp14 inhibition assay (Example 57B, B-series compounds). It is filed as biochemical. The note with it: IC50 class; average value from a minimum of two experimental determinations. The source says: Example 57B: Usp14 Inhibition Assay
Chain of USP14 (P54578 whole entry, looked up): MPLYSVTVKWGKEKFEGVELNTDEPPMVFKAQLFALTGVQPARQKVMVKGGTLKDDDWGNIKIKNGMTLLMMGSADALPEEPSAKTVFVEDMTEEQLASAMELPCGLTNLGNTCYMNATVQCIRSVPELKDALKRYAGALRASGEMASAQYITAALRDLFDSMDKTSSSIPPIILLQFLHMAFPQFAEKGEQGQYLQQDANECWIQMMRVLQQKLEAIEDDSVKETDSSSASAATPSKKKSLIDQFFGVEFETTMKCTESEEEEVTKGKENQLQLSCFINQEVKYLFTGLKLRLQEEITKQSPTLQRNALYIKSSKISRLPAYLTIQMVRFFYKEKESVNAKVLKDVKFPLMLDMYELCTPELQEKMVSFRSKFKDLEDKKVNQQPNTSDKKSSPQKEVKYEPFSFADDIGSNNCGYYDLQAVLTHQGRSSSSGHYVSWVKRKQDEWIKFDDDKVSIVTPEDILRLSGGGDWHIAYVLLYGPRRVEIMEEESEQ
The IC50 values in the Table below represent the average value from a minimum of two experimental determinations.
In the case of `Cc1cc(C(=O)CN2C3CC4CC2C(C3)O4)c(C)n1-c1ccc(C#N)cc1` (racemic) [Example 92B, (±)-4-(3-(2-((2R,3aS,5R,6aS)-Hexahydro-4H-2,5-methanofuro[3,2-b]pyrrol-4-yl)acetyl)-2,5-dimethyl-1H-pyrrol-1-yl)benzonitrile], the IC50 was in the range of 50 to 500 nM.

In turn, `Cc1c(C(=O)CN2C3CCC2[C@@H](O)C3)cc(/C=C/CCC#N)n1-c1ccc(C#N)cc1` (mixture of isomers) [Example 20B, (±)-4-(5-((E)-4-Cyanobut-1-en-1-yl)-3-(2-((2R)-2-hydroxy-7-azabicyclo[2.2.1]heptan-7-yl)acetyl)-2-methyl-1H-pyrrol-1-yl)benzonitrile] showed an IC50 of under 50 nM.

On to `Cc1c(C(=O)CN2C3CCC2[C@@H](O)C3)cc(CCC2COC2)n1-c1ccc(C#N)cc1` (mixture of isomers) [Example 43B, (±)-4-(3-(2-((2R)-2-Hydroxy-7-azabicyclo[2.2.1]heptan-7-yl)acetyl)-2-methyl-5-(2-(oxetan-3-yl)ethyl)-1H-pyrrol-1-yl)benzonitrile], for which the IC50 is under 50 nM.

For the compound `Cc1c(C(=O)CN2C3CCC2[C@@H](O)C3)cc(CCCn2cccn2)n1-c1ccc(C#N)cc1` (mixture of isomers) [Example 24B, (±)-4-(5-(3-(1H-Pyrazol-1-yl)propyl)-3-(2-((2R)-2-hydroxy-7-azabicyclo[2.2.1]heptan-7-yl)acetyl)-2-methyl-1H-pyrrol-1-yl)benzonitrile], the IC50 was in the range of 50 to 500 nM.

In turn, `Cc1c(C(=O)CN2[C@@H]3CC[C@H]2[C@@H](O)C3)cc(C(C)C)n1-c1ccc(C#N)cc1` (racemic) [Example 112B, (±)-4-(3-(2-((1R,2R,4S)-2-Hydroxy-7-azabicyclo[2.2.1]heptan-7-yl)acetyl)-5-isopropyl-2-methyl-1H-pyrrol-1-yl)benzonitrile] came in with an IC50 of 50 to 500 nM.

For `Cc1c(C(=O)CN2[C@@H]3CC[C@H]2[C@@H](C)C3)cc(C#N)n1-c1ccc(C#N)cc1` (racemic) [Example 136B, (±)-1-(4-Cyanophenyl)-5-methyl-4-(2-((1R,2R,4S)-2-methyl-7-azabicyclo[2.2.1]heptan-7-yl)acetyl)-1H-pyrrole-2-carbonitrile], the IC50 was under 50 nM.

Regarding `Cc1c(C(=O)CN2[C@@H]3CC[C@H]2[C@@H](C)C3)cc(CC2COC2)n1-c1ccc(C#N)cc1` (racemic) [Example 53B, (±)-4-(2-Methyl-3-(2-((1R,2R,4S)-2-methyl-7-azabicyclo[2.2.1]heptan-7-yl)acetyl)-5-(oxetan-3-ylmethyl)-1H-pyrrol-1-yl)benzonitrile], the 50% inhibitory concentration (IC50) was under 50 nM.

`Cc1cc(C(=O)CN2[C@@H]3CC[C@H]2[C@H]2CCO[C@H]23)c(C)n1-c1ccc(C#N)cc1` (racemic) [Example 139B, (±)-4-(2,5-Dimethyl-3-(2-((3aR,4S,7R,7aR)-octahydro-4,7-epiminobenzofuran-8-yl)acetyl)-1H-pyrrol-1-yl)benzonitrile]: the IC50 was over 500 nM.

Regarding `Cc1cc(C(=O)CN2C3CCC2[C@@H](O)C3)c(C)n1-c1cc(F)c(Cl)c(F)c1` (mixture of isomers) [Example 118B, (±)-1-(1-(4-Chloro-3,5-difluorophenyl)-2,5-dimethyl-1H-pyrrol-3-yl)-2-((2R)-2-hydroxy-7-azabicyclo[2.2.1]heptan-7-yl)ethan-1-one], the IC50 is over 500 nM.

Take `Cc1cc(C(=O)CN2[C@@H]3CC[C@H]2[C@H](C)C3)c(C)n1-c1ccc(C#N)cc1` (racemic) [Example 122B, (±)-4-(2,5-Dimethyl-3-(2-((1S,2R,4R)-2-methyl-7-azabicyclo[2.2.1]heptan-7-yl)acetyl)-1H-pyrrol-1-yl)benzonitrile]: the IC50 fell in the range of 50 to 500 nM.

`Cc1c(C(=O)CN2C3CCC2CC3)c(C)n(-c2ccc(C#N)cc2)c1CCCCS(C)(=O)=O` [Example 1B, 4-(3-(2-(7-Azabicyclo[2.2.1]heptan-7-yl)acetyl)-2,4-dimethyl-5-(4-(methylsulfonyl)butyl)-1H-pyrrol-1-yl)benzonitrile]: the IC50 is over 500 nM.
